# Results from US20230123334A1, “AMINO LIPID COMPOUND, PREPARATION METHOD THEREFOR, AND APPLICATION THEREOF” (SHENZHEN SHENXIN BIOTECHNOLOGY CO., LTD., priority 2020, published 2023).
# How the values were obtained:
# HEK293 cells [1] = assay: Preliminary screening as mRNA vectors, EGFP mRNA transfection of HEK293 cells; format: cell-based; conditions: HEK293 cells, 96-well plates, EGFP mRNA 50 ng per well; percentage of GFP fluorescent cells relative to total number of cells (Hoechst)
# Outline: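 Screening format: EGFP mRNA transfection (50 ng/well) into HEK293 in 10% FBS-supplemented DMEM. Percent green fluorescent cells, normalised to Hoechst nuclear count, gave the value; Lipofectamine2000 was the reference transfectant.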
# HEK293 cells [2] = assay: Preliminary screening as DNA vectors, GFP transfection of HEK293 cells; format: cell-based; conditions: HEK293 cells; lipid/DOPE liposome with 75 ng plasmid DNA (psin-EGFP-IRES-Puro); number of cells expressing GFP divided by total number of nuclei (Hoechst)
# Outline: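 First, amino lipid and DOPE were vortexed in sodium acetate buffer (pH 5.6) to form liposomes. Next, these were held with 75 ng EGFP plasmid at room temperature for 30 min. Finally, HEK293 cells were added, cultured at 37° C., Hoechst-stained, and GFP+/total nuclei scored by imaging.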
Structure (SMILES),Absolute mRNA transfection efficiency in HEK293 cells (HEK293 cells [1]) [%],Absolute DNA transfection efficiency in HEK293 cells (HEK293 cells [2]) [%]
CCCCCCCCCCCCCCCSc1nc(NCCN2CCCC2)nc(SCCCCCCCCCC)n1 [Compound S10S15D3],19.6,7.6
CCCCCCCCCCCCCCCSc1nc(NCCN2CCCCC2)nc(SCCCCCCCCCC)n1 [Compound S10S15D4],0.7,7.5
CCCCCCCCCCCCCCCSc1nc(NCCN2CCN(C)CC2)nc(SCCCCCCCCCC)n1 [Compound S10S15D5],9.4,3.7
CCCCCCCCCCCCCCCSc1nc(NCCCN(C)C)nc(SCCCCCCCCCC)n1 [Compound S10S15D6],24.6,32.8
CCCCCCCCCCCCCCCSc1nc(NCCN(CC)CC)nc(SCCCCCCCCCC)n1 [Compound S10S15D7],0.0,7.2
CCCCCCCCCCCCCCCSc1nc(NCCCN2CCOCC2)nc(SCCCCCCCCCC)n1 [Compound S10S15D8],11.1,15.2
CCCCCCCCCCCCCCCSc1nc(NCCCN2CCN(C)CC2)nc(SCCCCCCCCCC)n1 [Compound S10S15D9],3.8,3.9
CCCCCCCCCCCCCCCSc1nc(NCC2CCN(C)CC2)nc(SCCCCCCCCCC)n1 [Compound S10S15D10],19.4,55.8
CCCCCCCCCCCCCCCCSc1nc(NCCN(C)C)nc(SCCCCCCCCCC)n1 [Compound S10S16D1],0.1,7.2
CCCCCCCCCCCCCCCCSc1nc(NCCN2CCOCC2)nc(SCCCCCCCCCC)n1 [Compound S10S16D2],0.3,0.1
CCCCCCCCCCCCCCCCSc1nc(NCCN2CCCC2)nc(SCCCCCCCCCC)n1 [Compound S10S16D3],1.7,9.5
CCCCCCCCCCCCCCCCSc1nc(NCCN2CCCCC2)nc(SCCCCCCCCCC)n1 [Compound S10S16D4],0.8,9.1
CCCCCCCCCCCCCCCCSc1nc(NCCN2CCN(C)CC2)nc(SCCCCCCCCCC)n1 [Compound S10S16D5],13.6,9.4
CCCCCCCCCCCCCCCCSc1nc(NCCCN(C)C)nc(SCCCCCCCCCC)n1 [Compound S10S16D6],41.6,14.1
CCCCCCCCCCCCCCCCSc1nc(NCCN(CC)CC)nc(SCCCCCCCCCC)n1 [Compound S10S16D7],0.7,3.1
CCCCCCCCCCCCCCCCSc1nc(NCCCN2CCOCC2)nc(SCCCCCCCCCC)n1 [Compound S10S16D8],4.0,15.7
CCCCCCCCCCCCCCCCSc1nc(NCCCN2CCN(C)CC2)nc(SCCCCCCCCCC)n1 [Compound S10S16D9],19.9,7.8
CCCCCCCCCCCCCCCCCCSc1nc(NCCN(C)C)nc(SCCCCCCCCCC)n1 [Compound S10S18D1],3.5,9.9
CCCCCCCCCCCCCCCCCCSc1nc(NCCN2CCOCC2)nc(SCCCCCCCCCC)n1 [Compound S10S18D2],0.2,1.6
CCCCCCCCCCCCCCCCCCSc1nc(NCCN2CCCC2)nc(SCCCCCCCCCC)n1 [Compound S10S18D3],21.5,11.1
CCCCCCCCCCCCCCCCCCSc1nc(NCCN2CCCCC2)nc(SCCCCCCCCCC)n1 [Compound S10S18D4],6.2,6.7
CCCCCCCCCCCCCCCCCCSc1nc(NCCN2CCN(C)CC2)nc(SCCCCCCCCCC)n1 [Compound S10S18D5],3.5,3.7
CCCCCCCCCCCCCCCCCCSc1nc(NCCCN(C)C)nc(SCCCCCCCCCC)n1 [Compound S10S18D6],19.9,22.4
CCCCCCCCCCCCCCCCCCSc1nc(NCCN(CC)CC)nc(SCCCCCCCCCC)n1 [Compound S10S18D7],0.3,9.2

Structure (SMILES),Absolute mRNA transfection efficiency in HEK293 cells (HEK293 cells [1]) [%],Absolute DNA transfection efficiency in HEK293 cells (HEK293 cells [2]) [%]
CCCCCCCCCCCCCCCCCCSc1nc(NCCCN2CCOCC2)nc(SCCCCCCCCCC)n1 [Compound S10S18D8],8.0,13.7
CCCCCCCCCCCCCCCCCCSc1nc(NCCCN2CCN(C)CC2)nc(SCCCCCCCCCC)n1 [Compound S10S18D9],2.4,6.5
CCCCCCCCCCCCCCCCCCSc1nc(NCC2CCN(C)CC2)nc(SCCCCCCCCCC)n1 [Compound S10S18D10],54.6,43.1
CCCCCCCCCCCSc1nc(NCCN(C)C)nc(SCCCCCCCCCCC)n1 [Compound S11S11D1],12.9,1.3
CCCCCCCCCCCSc1nc(NCCN2CCOCC2)nc(SCCCCCCCCCCC)n1 [Compound S11S11D2],0.0,0.2
CCCCCCCCCCCSc1nc(NCCN2CCCC2)nc(SCCCCCCCCCCC)n1 [Compound S11S11D3],3.6,6.5
CCCCCCCCCCCSc1nc(NCCN2CCCCC2)nc(SCCCCCCCCCCC)n1 [Compound S11S11D4],0.4,4.0
CCCCCCCCCCCSc1nc(NCCN2CCN(C)CC2)nc(SCCCCCCCCCCC)n1 [Compound S11S11D5],28.7,3.4
CCCCCCCCCCCSc1nc(NCCCN(C)C)nc(SCCCCCCCCCCC)n1 [Compound S11S11D6],25.4,10.9
CCCCCCCCCCCSc1nc(NCCN(CC)CC)nc(SCCCCCCCCCCC)n1 [Compound S11S11D7],0.0,0.0
CCCCCCCCCCCSc1nc(NCCCN2CCOCC2)nc(SCCCCCCCCCCC)n1 [Compound S11S11D8],1.4,3.6
CCCCCCCCCCCSc1nc(NCCCN2CCN(C)CC2)nc(SCCCCCCCCCCC)n1 [Compound S11S11D9],8.0,4.3
CCCCCCCCCCCSc1nc(NCC2CCN(C)CC2)nc(SCCCCCCCCCCC)n1 [Compound S11S11D10],13.7,12.2
CCCCCCCCCCCCSc1nc(NCCN(C)C)nc(SCCCCCCCCCCC)n1 [Compound S11S12D1],4.7,2.3
CCCCCCCCCCCCSc1nc(NCCN2CCOCC2)nc(SCCCCCCCCCCC)n1 [Compound S11S12D2],0.0,0.1
CCCCCCCCCCCCSc1nc(NCCN2CCCC2)nc(SCCCCCCCCCCC)n1 [Compound S11S12D3],3.2,5.4
CCCCCCCCCCCCSc1nc(NCCN2CCCCC2)nc(SCCCCCCCCCCC)n1 [Compound S11S12D4],0.4,5.6
CCCCCCCCCCCCSc1nc(NCCN2CCN(C)CC2)nc(SCCCCCCCCCCC)n1 [Compound S11S12D5],9.2,2.8
CCCCCCCCCCCCSc1nc(NCCCN(C)C)nc(SCCCCCCCCCCC)n1 [Compound S11S12D6],21.5,5.2
CCCCCCCCCCCCSc1nc(NCCN(CC)CC)nc(SCCCCCCCCCCC)n1 [Compound S11S12D7],0.4,3.1
CCCCCCCCCCCCSc1nc(NCCCN2CCN(C)CC2)nc(SCCCCCCCCCCC)n1 [Compound S11S12D9],4.2,2.4
CCCCCCCCCCCCSc1nc(NCC2CCN(C)CC2)nc(SCCCCCCCCCCC)n1 [Compound S11S12D10],10.5,4.8
CCCCCCCCCCCCCCSc1nc(NCCN(C)C)nc(SCCCCCCCCCCC)n1 [Compound S11S14D1],1.9,2.0
